According to US11661426B2, “Imidazole-containing inhibitors of ALK2 kinase” (BioCryst Pharmaceuticals, Inc., priority 2017, dated 2023):

Biological target: ALK2 (Homo sapiens (Human), UniProt Q04771)
Assay: ALK2 inhibition, LanthaScreen Eu Kinase Binding Assay (ThermoFisher Scientific / Life Technologies)
Details: read-out: Measured Ki (IC50) Value for Compounds: IC50
Experimental: Biochemical assays to measure the inhibitory effects of the compounds were performed by ThermoFisher Scientific (Life Technologies). ALK2 inhibition was tested using LanthaScreen™ Eu Kinase Binding Assay screening protocol.

Sequence of ALK2 (Q04771 21-509): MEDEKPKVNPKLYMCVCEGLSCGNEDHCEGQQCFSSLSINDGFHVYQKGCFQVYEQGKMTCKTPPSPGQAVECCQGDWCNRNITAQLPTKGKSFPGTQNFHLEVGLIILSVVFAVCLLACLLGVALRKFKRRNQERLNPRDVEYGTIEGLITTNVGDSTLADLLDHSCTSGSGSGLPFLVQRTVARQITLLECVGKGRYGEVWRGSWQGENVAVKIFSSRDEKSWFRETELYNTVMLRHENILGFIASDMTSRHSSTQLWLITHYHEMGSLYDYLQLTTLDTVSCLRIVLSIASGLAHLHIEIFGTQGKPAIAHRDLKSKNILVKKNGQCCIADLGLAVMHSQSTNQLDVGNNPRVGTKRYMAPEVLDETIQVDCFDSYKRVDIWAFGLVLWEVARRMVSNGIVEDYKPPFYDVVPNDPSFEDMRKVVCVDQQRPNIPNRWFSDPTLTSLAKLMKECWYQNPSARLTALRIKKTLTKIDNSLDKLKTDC

IC50 | Structure (SMILES)
< 100 nM | COc1cc(-n2cnc(Nc3nc(N4CCC[C@@H]4C(N)=O)nc4cc(C(F)(F)F)ccc34)c2)cc(OC)c1OC [Compound 287a, (R)-1-(7-(trifluoromethyl)-4-((1-(3,4,5-trimethoxyphenyl)-1H-imidazol-4-yl)amino)quinazolin-2-yl)pyrrolidine-2-carboxamide]
< 100 nM | COc1cc(-n2cnc(Nc3nc(N4CCC[C@@H]4C(N)=O)nc4cc(F)ccc34)c2)cc(OC)c1OC [Compound 288a, (R)-1-(7-fluoro-4-((1-(3,4,5-trimethoxyphenyl)-1H-imidazol-4-yl)amino)quinazolin-2-yl)pyrrolidine-2-carboxamide]
< 100 nM | COc1cc(-n2cnc(Nc3nc(N4CCC[C@H]4CO)nc4c3CCC4)c2)cc(OC)c1OC [Compound 289b, (S)-(1-(4-((1-(3,4,5-trimethoxyphenyl)-1H-imidazol-4-yl)amino)-6,7-dihydro-5H-cyclopenta[d]pyrimidin-2-yl)pyrrolidin-2-yl)methanol]
< 100 nM | COc1cc(-n2cnc(Nc3nc(N4CCC[C@@H]4CO)nc4c3CCC4)c2)cc(OC)c1OC [Compound 290a, (R)-(1-(4-((1-(3,4,5-trimethoxyphenyl)-1H-imidazol-4-yl)amino)-6,7-dihydro-5H-cyclopenta[d]pyrimidin-2-yl)pyrrolidin-2-yl)methanol]
< 100 nM | COc1cc(-n2cnc(Nc3nc(N4CCC[C@@H]4C(N)=O)nc4c3CCC4)c2)cc(OC)c1OC [Compound 291a, (R)-1-(4-((1-(3,4,5-trimethoxyphenyl)-1H-imidazol-4-yl)amino)-6,7-dihydro-5H-cyclopenta[d]pyrimidin-2-yl)pyrrolidine-2-carboxamide]
< 100 nM | COc1cc(-n2cnc(Nc3nc(N4CCC[C@H]4C(N)=O)nc4c3CCC4)c2)cc(OC)c1OC [Compound 292a, (S)-1-(4-((1-(3,4,5-trimethoxyphenyl)-1H-imidazol-4-yl)amino)-6,7-dihydro-5H-cyclopenta[d]pyrimidin-2-yl)pyrrolidine-2-carboxamide]
< 100 nM | COc1cc(-n2cnc(Nc3nc(N4CCC[C@@H]4CO)nc4cc(C(F)(F)F)ccc34)c2)cc(OC)c1OC [Compound 293a, (R)-(1-(7-(trifluoromethyl)-4-((1-(3,4,5-trimethoxyphenyl)-1H-imidazol-4-yl)amino)quinazolin-2-yl)pyrrolidin-2-yl)methanol]
< 100 nM | COc1cc(-n2cnc(Nc3nc(N4CCC[C@@H]4CO)nc4ccoc34)c2)cc(OC)c1OC [Compound 294a, (R)-(1-(4-((1-(3,4,5-trimethoxyphenyl)-1H-imidazol-4-yl)amino)furo[3,2-d]pyrimidin-2-yl)pyrrolidin-2-yl)methanol]
< 100 nM | COc1cc(-n2cnc(Nc3nc(N4CCC[C@@H]4CO)nc4c3CCCC4)c2)cc(OC)c1OC [Compound 295b, (R)-(1-(4-((1-(3,4,5-trimethoxyphenyl)-1H-imidazol-4-yl)amino)-5,6,7,8-tetrahydroquinazolin-2-yl)pyrrolidin-2-yl)methanol]
< 100 nM | COc1cc(-n2cnc(Nc3nc(N4CCC[C@H]4CO)nc4c3CCCC4)c2)cc(OC)c1OC [Compound 296a, (S)-(1-(4-((1-(3,4,5-trimethoxyphenyl)-1H-imidazol-4-yl)amino)-5,6,7,8-tetrahydroquinazolin-2-yl)pyrrolidin-2-yl)methanol]
< 100 nM | COc1cc(-n2cnc(Nc3nc(N4CCC[C@@H]4CO)nc4sccc34)c2)cc(OC)c1OC [Compound 297a, (R)-(1-(4-((1-(3,4,5-trimethoxyphenyl)-1H-imidazol-4-yl)amino)thieno[2,3-d]pyrimidin-2-yl)pyrrolidin-2-yl)methanol]
< 100 nM | COc1cc(-n2cnc(Nc3nc(N4CCC[C@@H]4C(N)=O)nc4sccc34)c2)cc(OC)c1OC [Compound 298a, (R)-1-(4-((1-(3,4,5-trimethoxyphenyl)-1H-imidazol-4-yl)amino)thieno[2,3-d]pyrimidin-2-yl)pyrrolidine-2-carboxamide]
< 100 nM | COc1cc(-n2cnc(Nc3nc(N4CCC[C@@H]4C(N)=O)nc4ccsc34)c2)cc(OC)c1OC [Compound 299a, (R)-1-(4-((1-(3,4,5-trimethoxyphenyl)-1H-imidazol-4-yl)amino)thieno[3,2-d]pyrimidin-2-yl)pyrrolidine-2-carboxamide]
< 100 nM | COc1cc(-n2cnc(Nc3nc(N4CCC[C@@H]4C(N)=O)nc4ccoc34)c2)cc(OC)c1OC [Compound 300a, (R)-1-(4-((1-(3,4,5-trimethoxyphenyl)-1H-imidazol-4-yl)amino)furo[3,2-d]pyrimidin-2-yl)pyrrolidine-2-carboxamide]
< 100 nM | COc1cc(-n2cnc(Nc3nc(N4CCC[C@@H]4CO)c4occc4n3)c2)cc(OC)c1OC [Compound 301b, (R)-(1-(2-((1-(3,4,5-trimethoxyphenyl)-1H-imidazol-4-yl)amino)furo[3,2-d]pyrimidin-4-yl)pyrrolidin-2-yl)methanol]
< 100 nM | COc1cc(-n2cnc(Nc3nc(N4CCC[C@H]4C(N)=O)nc4c3CCCC4)c2)cc(OC)c1OC [Compound 302a, (S)-1-(4-((1-(3,4,5-trimethoxyphenyl)-1H-imidazol-4-yl)amino)-5,6,7,8-tetrahydroquinazolin-2-yl)pyrrolidine-2-carboxamide]
< 100 nM | COc1cc(-n2cnc(Nc3nc(N4CCC[C@@H]4CO)nc4ccsc34)c2)cc(OC)c1OC [Compound 303a, (R)-(1-(4-((1-(3,4,5-trimethoxyphenyl)-1H-imidazol-4-yl)amino)thieno[3,2-d]pyrimidin-2-yl)pyrrolidin-2-yl)methanol]
< 100 nM | COc1cc(-n2cnc(Nc3nc(N4CCC[C@@H]4CO)nc4ccccc34)c2)cc(OC)c1OC [Compound 304a, (R)-(1-(4-((1-(3,4,5-trimethoxyphenyl)-1H-imidazol-4-yl)amino)quinazolin-2-yl)pyrrolidin-2-yl)methanol]
< 100 nM | COc1cc(-n2cnc(Nc3nc(N4CCC[C@@H]4C(N)=O)nc4ccccc34)c2)cc(OC)c1OC [Compound 305a, (R)-1-(4-((1-(3,4,5-trimethoxyphenyl)-1H-imidazol-4-yl)amino)quinazolin-2-yl)pyrrolidine-2-carboxamide]
< 100 nM | COc1cc(-n2cnc(Nc3nc(N4CCC[C@@H]4CO)c4cc[nH]c4n3)c2)cc(OC)c1OC [Compound 307c, (R)-(1-(2-((1-(3,4,5-trimethoxyphenyl)-1H-imidazol-4-yl)amino)-7H-pyrrolo[2,3-d]pyrimidin-4-yl)pyrrolidin-2-yl)methanol]
< 100 nM | COc1cc(-n2cnc(Nc3nc(N4CCC[C@@H]4CO)nc4[nH]ccc34)c2)cc(OC)c1OC [Compound 308b, (R)-(1-(4-((1-(3,4,5-trimethoxyphenyl)-1H-imidazol-4-yl)amino)-7H-pyrrolo[2,3-d]pyrimidin-2-yl)pyrrolidin-2-yl)methanol]
< 100 nM | COc1cc(-n2cnc(Nc3nc(N4CCC[C@@H]4CO)c4ccsc4n3)c2)cc(OC)c1OC [Compound 309b, (R)-(1-(2-((1-(3,4,5-trimethoxyphenyl)-1H-imidazol-4-yl)amino)thieno[2,3-d]pyrimidin-4-yl)pyrrolidin-2-yl)methanol]

Structure (SMILES) | IC50
COc1cc(-n2cnc(Nc3nc(N4CCC[C@@H]4CO)nc4cc(N5CCC[C@@H]5CO)ccc34)c2)cc(OC)c1OC [Compound 306a, ((2R,2′R)-1,1′-(4-((1-(3,4,5-trimethoxyphenyl)-1H-imidazol-4-yl)amino)quinazoline-2,7-diyl)bis(pyrrolidine-2,1-diyl))dimethanol] | < 100 nM
